Laboratory results as given in publication PMC10786919, “Design-rules for stapled peptides with in vivo activity and their application to Mdm2/X antagonists” (Nature Communications, 2024).
≈ marks a conversion by molar mass, not a printed value. Like-named read-outs stand apart in the source and are kept apart here. Positions of bridges follow the written chain, without caps; N, C: chain ends. Non-standard residues stand in square brackets, D forms with d. Residues, ends and D or L forms follow the SMILES beside them. Lys(N3) = [N-]=[N+]=NCCCC[C@H](N)C(=O)O; Gla = N[C@@H](CC(C(=O)O)C(=O)O)C(=O)O; R8 = C=CCCCCCC[C@@](C)(N)C(=O)O; Cba = N[C@@H](CC1CCC1)C(=O)O; S5 = C=CCCC[C@](C)(N)C(=O)O; βAla = NCCC(=O)O

Key:
[1] = target: T1, human Mdm2 1–125 (Homo sapiens, UniProt Q00987); experiment: Mdm2 binding by competitive fluorescence anisotropy assay (FP binding)
T1 construct: GST (N); His6 (internal); TEV cleavage site (ENLYFQG) (internal); made in house; host or cells: BL21 (DE3) Rosetta T1R Escherichia coli
Excerpt: The TEV (tobacco etch virus) cleavage site was changed from ENLYFQS to ENLYFQG to give a fusion protein with the following sequence:
[P] is the protein concentration (Mdm2), [L] is the labeled peptide concentration, r is the anisotropy measured, r0 is the anisotropy of the free peptide, rb is the anisotropy of the Mdm2–FAM-labeled peptide complex, Kd is the dissociation constant, [L]t is the total FAM labeled peptide concentration, and [P]t is the total Mdm2 concentration. […] This value was then used to determine apparent Kd values of the respective competing ligands in subsequent competition assays in fluorescence anisotropy experiments.
The competing molecules were then titrated against the complex of the FAM-labeled peptide and protein. Apparent Kd values were determined by fitting the experimental data to equations shown below:2 r=ro+(rb−ro)×2(d^2−3e)cos(θ/3)−9/3Kd1+2(d^2−3e)cos(θ/3)−d 3 d=Kd1+Kd2+[L]st+[L]t−Pt 4 e=Lt−PtKd1+Lst+PtKd2+Kd1Kd2 5 f=−Kd1Kd2[P]t 6 θ=arcos−2d^3+9de−27f/2(d^2−3e)^3
[L]st and [L]t denote labeled ligand and total unlabeled ligand input concentrations, respectively. Kd2 is the dissociation constant of the interaction between the unlabeled ligand and the protein. In all competition experiments, it is assumed that [P]t > [L]st, otherwise considerable amounts of free labeled ligand would always be present and would interfere with measurements. […] The FAM-labeled peptide was dissolved in dimethyl sulfoxide (DMSO) at 1 mM and diluted into experimental buffer. Readings were carried out with an Envision Multilabel Reader (PerkinElmer). […] Curve-fitting was carried out using Prism 4.0 (GraphPad). […] Negative control titrations of the ligands under investigation were also carried out with the fluorescently labeled peptide (in the absence of Mdm2) to ensure no interactions were occurring between the ligands and the FAM-labeled peptide. […] Measurements were taken a minimum of three times (biological replicates) and values are reported as geometric means of the replicates.

[2] = Lactate dehydrogenase (LDH) release assay; format: cell-based
How it was run: (§1)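 A p53 β-lactamase reporter HCT116 line, 8000 cells per well, is exposed to test compounds at 0.5% final DMSO and scored for LDH leakage.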

[3] = tested on: HCT116 cells; experiment: Lactate dehydrogenase (LDH) release assay; format: cell-based
How it was run: as §1

[4] = Solubility assay (kinetic solubility, PBS pH 7); format: physicochemical; conditions: pH 7, PBS; for solubility kinetic: pH 7, aqueous buffer, kinetic from dmso stock, read-out: Solubility
How it was run: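 Reference standards were made by diluting the 10 mM stock to 100 µM in acetonitrile:methanol:DMSO 10:80:10. Solubility in µM was calculated as the sample peak area divided by the standard peak area, multiplied by the standard concentration.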

[5] = tested on: Ca Ski cell line; conditions: Ca Ski
How it was run: (§2)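 Compound dilution series (10 points, 3-fold, 10 mM top stock in DMSO) tested on overnight-plated Ca Ski cells in RPMI1640/10% FBS and on blasticidin-selected p53RE-bla HCT-116 cells in McCoy's 5A; read-out was CellTiter-Glo 2.0 luminescence after room-temperature equilibration.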

[6] = tested on: CellSensor p53RE-bla HCT-116 Cell Line; conditions: read-out: Proliferation EC50 HCT116 (On-target); HCT116
How it was run: as §2

[7] = Nanoclick permeability assay
How it was run: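 Azido-peptide permeability was read as loss of NanoBRET signal (donor 450 nm, acceptor 610 nm) after adding NanoBret618-azide at 10 μM final.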

[8] = EPSA; format: physicochemical
[9] = Experimental LogD (partition coefficient); conditions: for logD: not stated, Partition Coeff LogD
[10] = tested on: p53 responsive β-lactamase reporter in HCT116 cells; experiment: cells; format: cell-based
How it was run: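 Read-out used the ToxBLAzer Dual Screen for β-lactamase driven by a stably integrated p53-responsive reporter. Assay: 8000 HCT116 cells per well at 0.5% final DMSO. Reported numbers are geometric means over a minimum of three biological replicates.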

[11] = tested on: Jump-In T-REx CHO-K1 BLA cells; experiment: cells; format: cell-based; conditions: for EC50: read-out: TETCHO: Counterscreen EC50
[12] = 0% FBS 4Hr, read-out: p53 reporter assay EC50
[13] = 0% FBS 4Hr, read-out: p53 reporter assay: EC50

T1 sequence (Q00987 with tags, fused parts or gaps): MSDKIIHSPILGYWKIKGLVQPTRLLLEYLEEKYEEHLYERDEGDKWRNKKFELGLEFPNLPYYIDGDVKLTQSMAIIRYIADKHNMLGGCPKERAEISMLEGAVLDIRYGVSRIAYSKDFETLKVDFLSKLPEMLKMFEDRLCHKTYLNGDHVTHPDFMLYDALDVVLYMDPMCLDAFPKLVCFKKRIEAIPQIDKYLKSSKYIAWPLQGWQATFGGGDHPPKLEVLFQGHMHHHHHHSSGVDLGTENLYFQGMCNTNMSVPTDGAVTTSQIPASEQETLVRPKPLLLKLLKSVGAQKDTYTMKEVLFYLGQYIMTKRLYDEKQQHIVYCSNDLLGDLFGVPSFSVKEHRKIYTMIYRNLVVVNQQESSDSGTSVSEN

| Compound | solubility kinetic [4] | EPSA ([8]; EPSA) | logD [9] | Kd ([1]; read-out: FP binding assay KD) | EC50 [10, 12] | EC50 ([2]; LDH: Cytotoxicity assay EC50) | LDH: Cytotoxicity assay % Effect [3] | TETCHO: Counterscreen % Effect ([11]; 0% FBS 4Hr) | EC50 ([11]; 0% FBS 4Hr) | p53 reporter assay: % Effect ([10]; 0% FBS 4Hr) | EC50 [10, 13] | further results |
| --- | --- | --- | --- | --- | --- | --- | --- | --- | --- | --- | --- | --- |
| CC(=O)N[C@@H](CCCCN=[N+]=[N-])C(=O)NCCC(=O)N[C@@H](CC(C)C)C(=O)N[C@H](C(=O)N[C@@H](Cc1ccccc1)C(=O)N[C@]1(C)CCCCCCC=CCCC[C@@](C)(C(=O)N[C@@H](CC(C(=O)O)C(=O)O)C(=O)N[C@@H](C)C(=O)N[C@@H](C)C(=O)N[C@@H](C)C(=O)N[C@@H](C)C(=O)N[C@H](C)C(N)=O)NC(=O)[C@H](CC2CCC2)NC(=O)[C@H](CCC(N)=O)NC(=O)[C@H](C)NC(=O)[C@H](Cc2c[nH]c3ccccc23)NC(=O)[C@H](Cc2ccc(O)cc2)NC(=O)[C@H](CCC(=O)O)NC1=O)[C@@H](C)O [MP-897] (Ac-[Lys(N3)][βAla]LTF[R8]EYWAQ[Cba][S5][Gla]AAAA[dA]-NH2; staple 6-13) | 163 µM (≈ 370 µg/mL) | 257 A^2 | 2.25 |  |  |  |  |  |  |  |  | Kd ([1]; Binding KD): < 0.001 µM; EC50 ([2]; 0% FBS 4Hr, read-out: LDH: Cytotoxicity assay: EC50): > 50.7 µM; EC50 ([2]; 10% FBS 16Hr, read-out: LDH: Cytotoxicity assay: EC50): > 50.7 µM; LDH: Cytotoxicity assay: % Effect ([3]; 0% FBS 4Hr): 6.465%; LDH: Cytotoxicity assay: % Effect ([3]; 10% FBS 16Hr): 20.53%; Proliferation % inhibition at 50 µM Ca Ski ([5]; 50 µM): -19.1%; EC50 ([5]; read-out: Proliferation EC50 Ca Ski (Off-target)): > 49.8 µM; EC50 [6]: 0.79 µM; cell entry EC50 [7]: 2.27 µM |
| CC(C)C[C@@H]1NC(=O)[C@H](C)NC(=O)[C@H](Cc2c[nH]c3ccccc23)NC(=O)[C@H](Cc2ccc(O)cc2)NC(=O)[C@H](CCC(=O)O)NC(=O)[C@](C)(NC(=O)[C@H](Cc2ccccc2)NC(=O)[C@H](CO)NC(=O)[C@@H](NC(=O)[C@H](CO)NC(=O)CNC(=O)[C@@H](N)CO)[C@@H](C)O)CCCCCCC=CCCC[C@@](C)(C(N)=O)NC(=O)[C@H](CC(C)C)NC1=O [MP-132] |  |  |  | 0.0459 µM | 39.6 µM | > 50 µM | 1.056% | 9.469% | > 50 µM |  |  |  |
| CC(=O)N[C@H](C(=O)N[C@@H](CO)C(=O)N[C@@H](Cc1ccccc1)C(=O)NC(C)(C)C(=O)N[C@@H](CCC(=O)O)C(=O)N[C@@H](Cc1ccc(O)cc1)C(=O)N[C@@H](Cc1c[nH]c2ccccc12)C(=O)N[C@@H](C)C(=O)N[C@@H](CC(C)C)C(=O)N[C@@H](CC(C)C)C(=O)NC(C)(C)C(N)=O)[C@@H](C)O [MP-153] |  |  |  | 0.133 µM | 34.2 µM | > 50 µM | 0.7534% | 16.18% | > 50 µM |  |  |  |
| CC(=O)N[C@@H](CC(C)C)C(=O)N[C@H](C(=O)N[C@@H](Cc1ccccc1)C(=O)N[C@]1(C)CCCCCCC=CCCC[C@@](C)(C(=O)N[C@@H](CO)C(=O)N[C@@H](C)C(=O)N[C@@H](C)C(N)=O)NC(=O)[C@H](CC(C)C)NC(=O)[C@H](CCC(N)=O)NC(=O)[C@H](C)NC(=O)[C@H](Cc2c[nH]c3ccccc23)NC(=O)[C@H](Cc2ccc(O)cc2)NC(=O)[C@H](CCC(=O)O)NC1=O)[C@@H](C)O [MP-211] |  |  |  | 0.0678 µM |  |  |  | 40.04% | 48.5 µM | 96.16% | 0.731 µM | p53 reporter assay: % Effect ([10]; 0% FBS 16Hr): 100.4%; EC50 ([10]; 0% FBS 16Hr, read-out: p53 reporter assay: EC50): 1.48 µM; TETCHO: Counterscreen % Effect ([11]; 0% FBS 16Hr): 114.5%; EC50 ([11]; 0% FBS 16Hr): 25.2 µM; Solubility [4]: 177; EPSA [8]: 201; Partition Coeff LogD [9]: 2.82 |
| CC(=O)N[C@@H](CCCCN)C(=O)N[C@@H](CCCCN)C(=O)N[C@H](C(=O)N[C@@H](CO)C(=O)N[C@@H](Cc1ccccc1)C(=O)N[C@]1(C)CCCCCCC=CCCC[C@@](C)(C(N)=O)NC(=O)[C@H](CC(C)C)NC(=O)[C@H](CC(C)C)NC(=O)[C@H](C)NC(=O)[C@H](Cc2c[nH]c3ccccc23)NC(=O)[C@H](Cc2ccc(O)cc2)NC(=O)[C@H](CCC(=O)O)NC1=O)[C@@H](C)O [MP-142] |  |  |  | 0.0422 µM | 15.2 µM | 46.7 µM | 72.79% | 22.09% | 20.2 µM |  |  |  |
| CC(=O)N[C@@H](CC(C)C)C(=O)N[C@H](C(=O)N[C@@H](Cc1ccccc1)C(=O)N[C@]1(C)CCCCCCC=CCCC[C@@](C)(C(=O)N[C@@H](CO)C(=O)N[C@@H](C)C(=O)N[C@@H](C)C(N)=O)NC(=O)[C@H](CC(C)C)NC(=O)[C@H](CCC(N)=O)NC(=O)[C@H](C)NC(=O)[C@H](Cc2c[nH]c3ccccc23)NC(=O)[C@H](Cc2ccc(O)cc2)NC(=O)[C@H](CCC(=O)O)NC1=O)[C@@H](C)O [MP-154] | 146 µM (≈ 254 µg/mL) | 199 A^2 | 2.87 | 0.0444 µM |  |  |  | 205.4% | 27.1 µM | 150.7% | 0.417 µM | EC50 ([2]; LDH: Cytotoxicity assay: EC50): > 50.7 µM; LDH: Cytotoxicity assay: % Effect [3]: 34.9% |
| CC(=O)N[C@H](C(=O)N[C@@H](CO)C(=O)N[C@@H](Cc1ccccc1)C(=O)N[C@]1(C)CCCCCCC=CCCC[C@@](C)(C(=O)N[C@@H](CCC(=O)O)C(N)=O)NC(=O)[C@H](CC(C)C)NC(=O)[C@H](CC(C)C)NC(=O)[C@H](C)NC(=O)[C@H](Cc2c[nH]c3ccccc23)NC(=O)[C@H](Cc2ccc(O)cc2)NC(=O)[C@H](CCC(=O)O)NC1=O)[C@@H](C)O [MP-139] |  |  |  | < 0.001 µM | 6.25 µM | 38.8 µM | 20.87% | 1.538% | > 50 µM |  |  |  |
| CC(=O)N[C@@H](CCCCN)C(=O)NCCCCCC(=O)N[C@H](C(=O)N[C@@H](CO)C(=O)N[C@@H](Cc1ccccc1)C(=O)N[C@]1(C)CCCCCCC=CCCC[C@@](C)(C(=O)N[C@@H](CCC(=O)O)C(=O)N[C@@H](CC(N)=O)C(=O)N[C@@H](Cc2ccccc2)C(N)=O)NC(=O)[C@H](CC(C)C)NC(=O)[C@H](CC(C)C)NC(=O)[C@H](C)NC(=O)[C@H](Cc2c[nH]c3ccccc23)NC(=O)[C@H](Cc2ccc(O)cc2)NC(=O)[C@H](CCC(=O)O)NC1=O)[C@@H](C)O [MP-6210] | 74 µM (≈ 155 µg/mL) | 255 A^2 | 2.55 | 0.0674 µM |  |  |  | 57.09% | 44 µM | 115.9% | 7.41 µM | EC50 ([2]; LDH: Cytotoxicity assay: EC50): > 50.7 µM; LDH: Cytotoxicity assay: % Effect [3]: 13.27% |
| CC(=O)N[C@H](C(=O)N[C@@H](CO)C(=O)N[C@@H](Cc1ccccc1)C(=O)N[C@]1(C)CCCCCCC=CCCC[C@@](C)(C(=O)N[C@@H](CO)C(=O)N[C@@H](C)C(=O)N[C@@H](C)C(=O)N[C@@H](CCC(=O)O)C(N)=O)NC(=O)[C@H](CC(C)C)NC(=O)[C@H](CC(C)C)NC(=O)[C@H](C)NC(=O)[C@H](Cc2c[nH]c3ccccc23)NC(=O)[C@H](Cc2ccc(O)cc2)NC(=O)[C@H](CCC(=O)O)NC1=O)[C@@H](C)O [MP-141] |  |  |  | < 0.001 µM | 5.36 µM | > 50 µM | 8.71% | 2.385% | > 50 µM |  |  |  |
